pIC50: −log10 of the molar value.
Tested on: KRAS-mutant PDC multicell tumor spheroid viability
Assay: Anticancer human tumor 521955-158-R2-J5-PDC patient-derived pancreatic carcinoma cell line growth inhibition [KRAS2]
Details: for pIC50: curve of first compound; for viability, T/C: stronger effect = lower value
How it was run: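 Combination screen of spheroid viability in tumor-cell co-cultures with endothelial (HUVEC) and mesenchymal stem cell stroma. Each agent was tested in half-log dilutions, topping at clinical Cmax or at 10 microM without a known Cmax.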

[1] = second compound 0.1 µM, first compound 0.0316 µM
[2] = second compound 0.1 µM, first compound 0.1 µM
[3] = second compound 0.1 µM, first compound 0.316 µM
[4] = second compound 0.1 µM, first compound 1 µM
[5] = second compound 0.1 µM, first compound 3.16 µM
[6] = second compound 0.1 µM, first compound 10 µM
[7] = second compound 0.316 µM, first compound 0.0316 µM
[8] = second compound 0.316 µM, first compound 0.1 µM
[9] = second compound 0.316 µM, first compound 0.316 µM
[10] = second compound 0.316 µM, first compound 1 µM
[11] = second compound 0.316 µM, first compound 3.16 µM
[12] = second compound 0.316 µM, first compound 10 µM
[13] = second compound 1 µM, first compound 0.0316 µM
[14] = second compound 1 µM, first compound 0.1 µM
[15] = second compound 1 µM, first compound 0.316 µM
[16] = second compound 1 µM, first compound 1 µM
[17] = second compound 1 µM, first compound 3.16 µM
[18] = second compound 1 µM, first compound 10 µM
[19] = second compound 3.16 µM, first compound 0.0316 µM
[20] = second compound 3.16 µM, first compound 0.1 µM
[21] = second compound 3.16 µM, first compound 0.316 µM
[22] = second compound 3.16 µM, first compound 1 µM
[23] = second compound 3.16 µM, first compound 3.16 µM
[24] = second compound 3.16 µM, first compound 10 µM
[25] = second compound 10 µM, first compound 0.0316 µM
[26] = second compound 10 µM, first compound 0.1 µM
[27] = second compound 10 µM, first compound 0.316 µM
[28] = second compound 10 µM, first compound 1 µM
[29] = second compound 10 µM, first compound 3.16 µM
[30] = second compound 10 µM, first compound 10 µM
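Further: viability read after seven days of drug exposure.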

| Structure (SMILES) | pIC50 (second compound 0.1 µM) | pIC50 (second compound 0.316 µM) | pIC50 (second compound 1 µM) | pIC50 (second compound 3.16 µM) | viability, T/C [1] | viability, T/C [2] | viability, T/C [3] | viability, T/C [4] | viability, T/C [5] | viability, T/C [6] | viability, T/C [7] | viability, T/C [8] | viability, T/C [9] | viability, T/C [10] | viability, T/C [11] | viability, T/C [12] | viability, T/C [13] | viability, T/C [14] | viability, T/C [15] | viability, T/C [16] | also measured |
| --- | --- | --- | --- | --- | --- | --- | --- | --- | --- | --- | --- | --- | --- | --- | --- | --- | --- | --- | --- | --- | --- |
| CC(C)NCC(C(=O)N1CCN(c2ncnc3c2C(C)CC3O)CC1)c1ccc(Cl)cc1 (stereo not given) + C=CC(=O)N1CCN(c2nc(OCC3CCCN3C)nc3c2CCN(c2cccc4cccc(C)c24)C3)CC1CC#N | < 5.00 | < 5.00 | < 5.00 | > 7.50 | 103% | 103% | 84.5% | 83.6% | 79.6% | 59.8% | 97.5% | 92.3% | 76.2% | 73.5% | 75.4% | 52.1% | 81.6% | 80.4% | 65.8% | 59.2% | pIC50 (second compound 0.0316 µM): < 5.00; viability, T/C (second compound 0.0316 µM, first compound 0.0316 µM): 108%; viability, T/C (second compound 0.0316 µM, first compound 0.1 µM): 110%; viability, T/C (second compound 0.0316 µM, first compound 0.316 µM): 84.5%; viability, T/C (second compound 0.0316 µM, first compound 1 µM): 87.1%; viability, T/C (second compound 0.0316 µM, first compound 3.16 µM): 92.3%; viability, T/C (second compound 0.0316 µM, first compound 10 µM): 65.8%; viability, T/C [17]: 62.3%; viability, T/C [18]: 50.6%; viability, T/C [19]: 12.2%; viability, T/C [20]: 14.6%; viability, T/C [21]: 17%; viability, T/C [22]: 11.6%; viability, T/C [23]: 3.96%; viability, T/C [24]: 1.11% |
| COc1cc(Nc2ncc3c(n2)-c2ccc(Cl)cc2C(c2c(F)cccc2OC)=NC3)ccc1C(=O)O + CNCc1ccccc1-c1csc(C(C)Nc2nc(C)nc3cc(OC)c(OC)cc23)c1 | 7.12 | > 7.50 | > 7.50 | > 7.50 | 57.5% | 48.2% | 43.6% | 48.2% | 49.2% | 43.6% | 48.4% | 45.4% | 51.4% | 46% | 47.6% | 39.8% | 39.7% | 31.4% | 34.5% | 28.4% | pIC50 (second compound 10 µM): > 7.50; viability, T/C [17]: 35.2%; viability, T/C [18]: 40.9%; viability, T/C [19]: 0.73%; viability, T/C [20]: 0.13%; viability, T/C [21]: 1.25%; viability, T/C [22]: 1.11%; viability, T/C [23]: 0.12%; viability, T/C [24]: 1.59%; viability, T/C [25]: 0.28%; viability, T/C [26]: 0.29%; viability, T/C [27]: 0.26%; viability, T/C [28]: 0.51%; viability, T/C [29]: 1.28%; viability, T/C [30]: 0.37% |
| Cn1nccc1Nc1nccc(-c2cc3c(s2)C(C)(C)N(CCN2CCOCC2)C3=O)n1 + C=CC(=O)N1CCN(c2nc(=O)n(-c3c(C)ccnc3C(C)C)c3nc(-c4c(O)cccc4F)c(F)cc23)C(C)C1 | 5.79 | 5.69 | 5.54 | 5.53 | 98.9% | 94.9% | 76.9% | 59.4% | 37.9% | 24.2% | 125% | 107% | 76.9% | 58.5% | 47% | 36.7% | 117% | 110% | 85.3% | 67.5% | pIC50 (second compound 10 µM): 6.00; viability, T/C [17]: 42.7%; viability, T/C [18]: 47.5%; viability, T/C [19]: 110%; viability, T/C [20]: 116%; viability, T/C [21]: 84.6%; viability, T/C [22]: 64.2%; viability, T/C [23]: 54.1%; viability, T/C [24]: 40.5%; viability, T/C [25]: 78.5%; viability, T/C [26]: 78.1%; viability, T/C [27]: 61.3%; viability, T/C [28]: 52.8%; viability, T/C [29]: 41.1%; viability, T/C [30]: 43.1% |
